Source: article PMC4457528, “Identification of Novel Small Molecule Inhibitors of Oncogenic RET Kinase” (PLoS ONE, 2015)
Like-named read-outs stand apart in the source and are kept apart here.

How the values were obtained:
Test in all cases: KinomeScan kinase panel, single concentration 10 µM
Format in all cases: binding
KinomeScan kinase panel [1] = target: T1, KinomeScan kinase panel (Homo sapiens, UniProt O60674); conditions: 10 µM
T1 construct: purchased DiscoveRx (KinomeScan)

KinomeScan kinase panel [2] = target: T2, KinomeScan kinase panel (Homo sapiens, UniProt P54762); conditions: EPHB1, 10 µM; read-out: score (%)
T2 construct: purchased DiscoveRx (KinomeScan)
T2 sequence (P54762 18-984): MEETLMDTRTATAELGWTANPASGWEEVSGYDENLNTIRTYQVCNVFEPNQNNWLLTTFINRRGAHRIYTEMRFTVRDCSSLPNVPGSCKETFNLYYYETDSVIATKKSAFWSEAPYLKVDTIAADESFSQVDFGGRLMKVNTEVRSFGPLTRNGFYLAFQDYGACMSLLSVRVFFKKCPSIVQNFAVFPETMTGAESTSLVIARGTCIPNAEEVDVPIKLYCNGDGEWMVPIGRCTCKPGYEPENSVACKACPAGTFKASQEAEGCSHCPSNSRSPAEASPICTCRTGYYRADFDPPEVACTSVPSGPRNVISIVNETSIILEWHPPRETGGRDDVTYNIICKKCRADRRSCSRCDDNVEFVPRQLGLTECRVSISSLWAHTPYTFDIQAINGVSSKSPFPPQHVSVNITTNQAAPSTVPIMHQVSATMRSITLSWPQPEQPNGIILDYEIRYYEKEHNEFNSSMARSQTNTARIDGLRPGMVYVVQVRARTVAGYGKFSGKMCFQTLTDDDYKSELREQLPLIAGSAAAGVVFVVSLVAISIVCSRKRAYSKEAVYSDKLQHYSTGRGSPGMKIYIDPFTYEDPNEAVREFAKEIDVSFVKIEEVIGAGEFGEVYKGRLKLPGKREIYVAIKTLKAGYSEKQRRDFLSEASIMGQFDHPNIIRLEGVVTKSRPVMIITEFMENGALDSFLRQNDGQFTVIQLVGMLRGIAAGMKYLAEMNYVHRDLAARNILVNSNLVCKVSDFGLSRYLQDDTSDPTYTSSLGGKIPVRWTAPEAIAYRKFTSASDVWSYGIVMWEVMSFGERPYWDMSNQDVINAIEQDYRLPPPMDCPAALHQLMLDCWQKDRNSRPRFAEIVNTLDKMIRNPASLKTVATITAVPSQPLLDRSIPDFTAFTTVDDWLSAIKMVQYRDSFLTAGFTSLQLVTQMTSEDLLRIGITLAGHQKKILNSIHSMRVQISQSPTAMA

KinomeScan kinase panel [3] = target: T3, KinomeScan kinase panel (Homo sapiens, UniProt Q9BZL6); conditions: read-out: score (%)
T3 construct: purchased DiscoveRx (KinomeScan)
T3 sequence (Q9BZL6 1-878): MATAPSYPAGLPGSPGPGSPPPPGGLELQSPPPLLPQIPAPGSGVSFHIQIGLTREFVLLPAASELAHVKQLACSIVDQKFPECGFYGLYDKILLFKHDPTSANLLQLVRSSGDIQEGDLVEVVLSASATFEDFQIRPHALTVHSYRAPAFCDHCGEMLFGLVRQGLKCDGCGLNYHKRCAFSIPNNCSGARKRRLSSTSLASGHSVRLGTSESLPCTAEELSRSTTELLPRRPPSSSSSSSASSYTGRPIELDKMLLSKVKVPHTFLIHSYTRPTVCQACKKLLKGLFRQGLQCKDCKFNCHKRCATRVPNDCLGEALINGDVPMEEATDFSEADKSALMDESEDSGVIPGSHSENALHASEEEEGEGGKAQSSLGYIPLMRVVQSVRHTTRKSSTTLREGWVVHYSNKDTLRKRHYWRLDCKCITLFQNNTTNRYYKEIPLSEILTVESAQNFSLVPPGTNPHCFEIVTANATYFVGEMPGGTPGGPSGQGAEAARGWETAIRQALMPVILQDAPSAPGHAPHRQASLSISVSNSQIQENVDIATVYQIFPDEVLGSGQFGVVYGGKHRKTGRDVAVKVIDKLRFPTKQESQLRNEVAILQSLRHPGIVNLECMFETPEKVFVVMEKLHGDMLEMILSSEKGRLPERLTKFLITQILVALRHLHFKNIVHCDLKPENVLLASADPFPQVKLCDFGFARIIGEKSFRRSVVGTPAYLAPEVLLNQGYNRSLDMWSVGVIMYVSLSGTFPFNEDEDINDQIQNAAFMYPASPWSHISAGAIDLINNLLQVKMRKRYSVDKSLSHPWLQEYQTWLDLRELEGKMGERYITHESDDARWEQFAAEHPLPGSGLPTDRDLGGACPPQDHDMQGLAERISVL

KinomeScan kinase panel [4] = target: T4, KinomeScan kinase panel (Homo sapiens, UniProt O00238); conditions: BMPR1B, 10 µM; read-out: score (%)
T4 construct: purchased DiscoveRx (KinomeScan)
T4 sequence (O00238 14-502): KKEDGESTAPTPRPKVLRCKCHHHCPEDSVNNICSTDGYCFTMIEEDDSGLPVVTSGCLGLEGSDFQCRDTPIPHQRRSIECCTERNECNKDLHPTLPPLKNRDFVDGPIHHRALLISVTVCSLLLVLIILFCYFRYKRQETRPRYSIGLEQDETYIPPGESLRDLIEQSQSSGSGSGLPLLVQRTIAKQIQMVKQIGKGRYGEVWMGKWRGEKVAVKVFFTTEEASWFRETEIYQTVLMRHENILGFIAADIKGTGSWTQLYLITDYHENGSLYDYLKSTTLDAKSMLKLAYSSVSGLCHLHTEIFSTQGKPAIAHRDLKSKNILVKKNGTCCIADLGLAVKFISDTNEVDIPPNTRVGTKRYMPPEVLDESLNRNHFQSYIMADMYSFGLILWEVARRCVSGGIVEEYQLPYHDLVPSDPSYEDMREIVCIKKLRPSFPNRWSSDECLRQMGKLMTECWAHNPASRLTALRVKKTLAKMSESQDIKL

KinomeScan kinase panel [5] = target: T5, KinomeScan kinase panel (Homo sapiens, UniProt Q6P3R8); conditions: NEK5, 10 µM; read-out: score (%)
T5 construct: purchased DiscoveRx (KinomeScan)
T5 sequence (Q6P3R8 1-708): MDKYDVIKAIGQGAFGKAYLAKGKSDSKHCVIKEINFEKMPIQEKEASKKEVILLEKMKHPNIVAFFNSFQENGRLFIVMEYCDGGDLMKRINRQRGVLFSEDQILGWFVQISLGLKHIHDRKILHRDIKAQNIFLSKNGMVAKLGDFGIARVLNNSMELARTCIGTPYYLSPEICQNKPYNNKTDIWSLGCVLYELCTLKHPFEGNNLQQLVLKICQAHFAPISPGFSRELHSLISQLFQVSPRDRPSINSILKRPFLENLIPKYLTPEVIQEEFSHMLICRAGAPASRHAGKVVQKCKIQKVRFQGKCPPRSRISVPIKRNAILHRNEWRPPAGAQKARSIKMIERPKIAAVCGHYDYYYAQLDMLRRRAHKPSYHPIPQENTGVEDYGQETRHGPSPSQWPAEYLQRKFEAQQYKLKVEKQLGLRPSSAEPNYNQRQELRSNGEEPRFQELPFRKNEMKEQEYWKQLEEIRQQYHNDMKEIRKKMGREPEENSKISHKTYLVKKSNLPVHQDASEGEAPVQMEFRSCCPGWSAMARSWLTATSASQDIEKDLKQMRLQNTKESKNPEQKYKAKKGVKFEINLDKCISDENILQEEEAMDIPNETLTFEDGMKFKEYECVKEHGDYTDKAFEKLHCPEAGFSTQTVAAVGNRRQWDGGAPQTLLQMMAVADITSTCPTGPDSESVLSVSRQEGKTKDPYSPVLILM

T1 sequence (O60674 whole entry): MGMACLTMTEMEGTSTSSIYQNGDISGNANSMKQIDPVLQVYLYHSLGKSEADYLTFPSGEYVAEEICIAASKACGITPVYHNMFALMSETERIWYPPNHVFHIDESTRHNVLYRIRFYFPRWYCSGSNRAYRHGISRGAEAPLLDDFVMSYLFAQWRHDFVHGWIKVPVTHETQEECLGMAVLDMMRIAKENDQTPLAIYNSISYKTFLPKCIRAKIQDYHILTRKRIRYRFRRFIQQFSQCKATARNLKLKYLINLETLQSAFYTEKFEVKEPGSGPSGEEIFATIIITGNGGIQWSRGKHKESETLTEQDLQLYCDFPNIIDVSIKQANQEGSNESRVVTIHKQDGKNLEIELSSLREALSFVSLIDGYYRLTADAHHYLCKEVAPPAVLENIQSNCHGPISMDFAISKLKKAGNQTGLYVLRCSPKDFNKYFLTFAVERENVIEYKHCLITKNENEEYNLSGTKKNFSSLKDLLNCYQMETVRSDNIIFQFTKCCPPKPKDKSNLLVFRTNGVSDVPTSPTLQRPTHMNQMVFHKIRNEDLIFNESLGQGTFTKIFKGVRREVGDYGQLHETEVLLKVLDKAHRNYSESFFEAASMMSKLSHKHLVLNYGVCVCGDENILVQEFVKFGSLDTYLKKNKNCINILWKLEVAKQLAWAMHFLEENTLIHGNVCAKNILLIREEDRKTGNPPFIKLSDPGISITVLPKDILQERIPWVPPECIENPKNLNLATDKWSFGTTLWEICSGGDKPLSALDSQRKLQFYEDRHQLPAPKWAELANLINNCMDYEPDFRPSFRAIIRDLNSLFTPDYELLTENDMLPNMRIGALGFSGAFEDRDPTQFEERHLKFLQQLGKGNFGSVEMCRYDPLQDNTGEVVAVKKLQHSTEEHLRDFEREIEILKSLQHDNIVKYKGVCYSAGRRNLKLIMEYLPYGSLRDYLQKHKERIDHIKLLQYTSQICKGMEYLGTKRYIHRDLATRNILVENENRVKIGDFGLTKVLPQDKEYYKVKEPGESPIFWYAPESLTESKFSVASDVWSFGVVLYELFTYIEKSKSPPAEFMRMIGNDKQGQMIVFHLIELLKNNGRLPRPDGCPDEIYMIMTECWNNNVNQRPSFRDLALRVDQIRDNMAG

score (%) (KinomeScan kinase panel [1]; JAK2(Kin.Dom.2)) | SMILES | score (%) (KinomeScan kinase panel [1]; JAK2(JH1domain-catalytic)) | remaining binding at 10 µM (KinomeScan kinase panel [2]) [%] | remaining binding at 10 µM (KinomeScan kinase panel [3]; kinase PRKD2, 10 µM) [%] | remaining binding at 10 µM (KinomeScan kinase panel [4]) [%] | remaining binding at 10 µM (KinomeScan kinase panel [5]) [%] | remaining binding at 10 µM (KinomeScan kinase panel [3]; PRKD2, 10 µM) [%]
 | CCN1CCN(Cc2ccc(NC(=O)c3ccc(C)c(C#Cc4cccnc4)c3)cc2C(F)(F)F)CC1 [XMD15-44] | 3 | 0.5 | 56 | > 30 | 4.8 | 
12 | CCN1CCN(Cc2ccc(NC(=O)c3ccc(C)c(/C=C/c4cnc5[nH]ccc5c4Cl)c3)cc2C(F)(F)F)CC1 [HG-6-63-01, (E)-3-(2-(4-chloro-1H-pyrrolo[2,3-b]pyridin-5-yl)vinyl)-N-(4-((4-ethylpiperazin-1-yl)methyl)-3-(trifluoromethyl)phenyl)-4-methylbenzamide] |  | 0.7 |  | > 30 | 7 | 32
 | CCN1CCN(Cc2ccc(NC(=O)c3ccc(C)c(NC(=O)c4cncc(-c5cccs5)c4)c3)cc2C(F)(F)F)CC1 [ALW-II-41-27] | 11 | 0.15 |  | > 30 | > 30 | > 30
